Converted amounts (≈) assume the structure as drawn.

The values below come from patent publication US7795207B2, “Lipopeptide compositions” (priority 2005, dated 2010).

The test system of one data set is fresh venal human blood. Particulars: for Reduction of the hemolysis in %: lipopeptide 1,600 mg/l in presence of 2.5% SBE-β-CD.
For the next data set, the system named is Female mice (CFW-1). Description: Acute toxicity in mice after one-time iv administration. Format: in vivo. Here is the method: Female mice (CFW-1 (Harlan Winkelmann, Germany)) were administered once (iv) the Ca2Cl2 friulimicin B solutions with and without SBE-β-CD. The mortality rate of the animals within 24 hours was determined.
The test system of data set [1] is Streptococcus pneumoniae L3TV. Nature of the data set: Intranasal lung infection model in the mouse. It is filed as in vivo. Particulars: mice, total dose 20 mg/kg subcutaneously 1 and 4 hours after infection; SBE-β-CD:friulimicin B 2.5:1; Mann Whitney Test p=0.0159. Here is the method: Herein, Ca2Cl2 friulimicin B serves as an example molecule for the antibiotics of the class of the lipopeptides and sulfobutylether-β-cyclodextrin (SBE-β-CD) as examples for modified β-cyclodextrins. Shown are the results of a study with an intranasal lung infection model in the mouse.
Female mice (CFW-1 (Harlan Winkelmann, Germany)) were infected intranasally with Streptococcus pneumoniae L3TV (1*10^6 CFU/mouse). 1 and 4 hours after the infection, the animals were subcutaneously administered a total dose of 20 mg Ca2Cl2 friulimicin B/kg with and without SBE-BCD (5%). 24-hours after the infection, a determination of the number of germs in the lung was performed by plating-out of a tissue disintegration on agar plates in a manner the person skilled in the art is familiar with.

Data set [2] deals with Staphylococcus carnosus ATCC 51365. Description: Minimum inhibitory concentration (agar dilution, CLSI). Format: cell-based. As to the method:
(§1) The effects of cyclodextrins on the antibiotic activity von Ca2Cl2 friulimicin B were investigated by in vitro experiments about the growth inhibition of Gram-positive bacteria. Herein, the minimum inhibitory concentration for the growth inhibition was determined by cultivation of the bacteria on nutritious agar (agar dilution) according to the CLSI (previously NCCLS) rules (National Committee for Clinical Laboratory Standards. 2003. Methods for dilution antimicrobial susceptibility tests for bacteria that grow aerobically; approved standard—6th ed. Document M7-A6. Clinical and Laboratory Standards Institute, Wayne, Pa., USA). Different molar mixture ratios of the lipopeptide Ca2Cl2 friulimicin B were tested with SBE-β-CD in Ca ions-adjusted Müller-Hinton medium. The Gram-positive strains tested for the cultivation methods were: • Staphylococcus carnosus ATCC 51365 {DSM 20501) • Staphylococcus aureus ATCC 29213 (DSM 2569) • Staphylococcus aureus ATCC 33592 (DSM 11729) • Staphylococcus epidermidis ATCC 12228 (DSM 1798)

Data set [3] relates to Staphylococcus epidermidis ATCC 12228. The data set is described as above. Format: cell-based. Here is the method: as §1
For data set [4], the system named is Staphylococcus aureus ATCC 33592. Described as above. It is filed as cell-based. Here is the method: as §1
Data set [5] has as its system Staphylococcus aureus ATCC 29213. The description is as above. It is filed as cell-based. Here is the method: as §1
Another data set deals with canine blood. Description: Hemolysis test with venal canine blood. Format: cell-based. Conditions: molar ratio SBE-β-CD:friulimicin B 2.5:1.
The subject of a further data set is E. faecalis ATCC 29212. Nature of the data set: Minimum inhibitory concentration in presence of HSA. It is filed as cell-based, Enterococcus faecalis.
For data set [6] the following is noted: literature (Oleson et al. 2000); cited from earlier work.
The conditions of data set [7]: literature; cited from earlier work.
[8] abbreviates: molar ratio Friulimicin:SBE-β-CD 1:0.
Setting [9] is: molar ratio Friulimicin:SBE-β-CD 1:2.5.
The mark [10] stands for this setting: molar ratio Friulimicin:SBE-β-CD 1:4.

Protocol for canine blood: Ca2Cl2 friulimicin B was dissolved in 0.9% NaCl solution with and without addition of SBE-β-CD. In the batch with SBE-β-CD there was a molar ratio (SBE-β-CD:friulimicin B) of 2.5:1. […] Statements of the content of Ca2Cl2 friulimicin B (in mg/l) refer to the final concentrations of the free acid of the friulimicin B in the reaction batch. The statements of the molar ratio refer to the free acids of friulimicin B and SBE-β-CD, respectively.

As for `CCC(C)CCCCCC=CCC(=O)NC(CC(=O)O)C(=O)NC1C(=O)N2CCCCC2C(=O)NC(C(C)C(=O)O)C(=O)NC(CC(=O)O)C(=O)NCC(=O)NC(CC(=O)O)C(=O)NCC(=O)NC(C(C)N)C(=O)NC(C(C)C)C(=O)N2CCCC2C(=O)NC1C` (stereo not drawn) [Amphomycin, reference compound], the “Reduction of the hemolysis in %” value with fresh venal human blood is 99.6%.

As for `CCCCCCCCCCCCCCCCCC(=O)NC(CC(N)=O)C(=O)NC1C(=O)N2CCCCC2C(=O)NC(C(C)C(=O)O)C(=O)NC(CC(=O)O)C(=O)NCC(=O)NC(CC(=O)O)C(=O)NCC(=O)NC(C(C)N)C(=O)NC(C(C)C)C(=O)N2CCCC2C(=O)NC1C` (stereo not drawn) [CBS000203], the “Reduction of the hemolysis in %” value with fresh venal human blood is reported as 41.3%.

On to `CCCCC/C=C\C/C=C\C/C=C\CCCCC(=O)NC(CC(N)=O)C(=O)NC1C(=O)N2CCCCC2C(=O)NC(C(C)C(=O)O)C(=O)NC(CC(=O)O)C(=O)NCC(=O)NC(CC(=O)O)C(=O)NCC(=O)NC(C(C)N)C(=O)NC(C(C)C)C(=O)N2CCCC2C(=O)NC1C` (stereo not drawn) [CBS000204], for which the “Reduction of the hemolysis in %” value in the data set with fresh venal human blood is listed as 87.0%.

Consider `CC(C)C1NC(=O)C(C(C)N)NC(=O)CNC(=O)C(CC(=O)O)NC(=O)CNC(=O)C(CC(=O)O)NC(=O)C(C(C)C(=O)O)NC(=O)C2CCCCN2C(=O)C(NC(=O)C(CC(N)=O)NC(=O)c2ccc(CCc3ccc(CCc4ccccc4)cc3)cc2)C(C)NC(=O)C2CCCN2C1=O` (stereo not drawn) [CBS000217], for which the “Reduction of the hemolysis in %” value in the data set on fresh venal human blood is 99.5%.

Take `CC(C)CCCCCCC/C=C\CC(=O)N[C@@H](CC(N)=O)C(=O)N[C@@H]1C(=O)N2CCCC[C@@H]2C(=O)N[C@@H]([C@H](C)C(=O)O)C(=O)N[C@@H](CC(=O)O)C(=O)NCC(=O)N[C@@H](CC(=O)O)C(=O)NCC(=O)N[C@H]([C@H](C)N)C(=O)N[C@@H](C(C)C)C(=O)N2CCC[C@H]2C(=O)N[C@@H]1C` [Ca2Cl2 friulimicin B, friulimicin B]: the “Mortality rate within 24 hours” value with Female mice (CFW-1) (300 mg/kg iv once, with addition of SBE-β-CD (molar ratio 2.5:1)) is 0% (0/3); with Female mice (CFW-1) (300 mg/kg iv once, without addition of SBE-β-CD), 0% (0/3); in the data set on Female mice (CFW-1) (350 mg/kg iv once, without addition of SBE-β-CD), 66% (2/3); in the data set on Female mice (CFW-1) (400 mg/kg iv once, with addition of SBE-β-CD (molar ratio 2.5:1)), 0% (0/3); in the data set with Female mice (CFW-1) (400 mg/kg iv once, without addition of SBE-β-CD), 100% (3/3). For the same molecule, in data set [1], the “Antibiotic effect (number of germs in the lung 24 hours after infection), with vs without SBE-β-CD” value is “increases the antibiotic effect”. Besides, the “Antibiotic activity (MIC)” value in data set [2] (setting [8]), in [2] (setting [9]), in data set [2] (setting [10]), in data set [3] (setting [8]), in [3] (setting [9]) and in [3] (setting [10]) was 0.5 µg/mL throughout. The “Antibiotic activity (MIC)” value in data set [4] (setting [8]) turned out to be 1 µg/mL; in data set [4] (setting [9]), 1 µg/mL; in data set [4] (setting [10]), 1 µg/mL; in data set [5] (setting [8]) it was 0.5 µg/mL; in data set [5] (setting [9]) it was 0.5 µg/mL; in data set [5] (setting [10]) it was 0.5 µg/mL. Besides, the “Effect of HP-β-CD on the induced hemolysis” value in the data set with fresh venal human blood was “suppress”. In addition, the figures for the “Reduction of the hemolysis by the addition of SBE-β-CD” value in the data set with canine blood (friulimicin B 800 mg/l) and in the data set on canine blood (friulimicin B 5,000 mg/l) were 55% and 100%, respectively.

As to `CC(C)CCCCCCC/C=C\CC(=O)N[C@@H](CC(N)=O)C(=O)N[C@@H]1C(=O)N2CCCC[C@@H]2C(=O)N[C@@H]([C@H](C)C(=O)O)C(=O)N[C@@H](CC(=O)O)C(=O)NCC(=O)N[C@@H](CC(=O)O)C(=O)NCC(=O)N[C@H]([C@H](C)N)C(=O)N[C@@H](C(C)C)C(=O)N2CCC[C@H]2C(=O)N[C@@H]1C` [Na2 friulimicin B, friulimicin B], the MIC value is 2 µg/mL (≈ 1.53 µM) in data set [5] (medium addition 0% HSA), 8 µg/mL (≈ 6.14 µM) in data set [5] (medium addition 4% HSA), 4 µg/mL in the data set on E. faecalis ATCC 29212 (medium addition 0% HSA) and over 64 µg/mL in the data set with E. faecalis ATCC 29212 (medium addition 4% HSA).

With `CCCCCCCCCC(=O)N[C@@H](Cc1c[nH]c2ccccc12)C(=O)N[C@H](CC(N)=O)C(=O)N[C@@H](CC(=O)O)C(=O)N[C@@H]1C(=O)NCC(=O)N[C@@H](CCCN)C(=O)N[C@@H](CC(=O)O)C(=O)N[C@H](C)C(=O)N[C@@H](CC(=O)O)C(=O)NCC(=O)N[C@H](CO)C(=O)N[C@@H]([C@H](C)CC(=O)O)C(=O)N[C@@H](CC(=O)c2ccccc2N)C(=O)O[C@@H]1C` [daptomycin], the “Toxicity on the skeletal muscle” value in data set [6] is reported as “damages the skeletal muscle”.

Consider iturin A, for which, in [7], the Hemolytic action entry is reported as “act in a hemolytic manner”.

In the case of lichenysin, the Hemolytic action result in [7] was “act in a hemolytic manner”.

For surfactin A, the Hemolytic action entry in data set [7] is “act in a hemolytic manner”.
